Results reported in patent US20230277560A1, “USE OF C[…] THE TREATMENT OF SEIZURES ASSOCIATED WITH CHRNA4 MUTATION” (GW Research Limited, priority 2020, published 2023).

Tested on: seizures associated with CHRNA4 mutation
Experiment: Open label, expanded-access program: seizure frequency in a patient with CHRNA4 mutation
Format: in vivo, human
Details: for Seizure frequency, Absence: baseline 0.0; for Seizure frequency, Absence / Seizure frequency, Tonic-clonic / Seizure frequency, Atonic / Seizure frequency, Myoclonic: concomitant rufinamide; for Seizure frequency, Tonic-clonic: baseline 0.4; for Seizure frequency, Atonic / Seizure frequency, Myoclonic: baseline 2800.0
Description: The subject was required to be on one or more AEDs at stable doses for a minimum of two weeks prior to baseline and to have stable vagus nerve stimulation (VNS) settings and ketogenic diet ratios for a minimum of four weeks prior to baseline.
The patient was administered botanically derived purified CBD in a 100 mg/mL sesame oil-based solution. Dose was increased to a goal of 25 mg/kg/day.
A maximum dose of 50 mg/kg/day could be utilised for the patient if they were tolerating the medication but had not achieved seizure control; the patient had further weekly titration by 5 mg/kg/day.
There was one patient in this study, and they received CBD for 24 weeks. Modifications were made to concomitant AEDs as per clinical indication.
Seizure frequency, intensity, and duration were recorded by caregivers in a diary during a baseline period of at least 28 days. Changes in seizure frequency relative to baseline were calculated after at least 2 weeks and at defined timepoints of treatment.
Patients may be defined as responders if they had more than 50% reduction in seizure frequency compared to baseline. The percent change in seizure frequency was calculated as follows: […]
The percent change of seizure frequency may be calculated for any time interval where seizure number has been recorded. For the purpose of this example the percent change of seizure frequency for the end of the treatment period was calculated as follows: […]

[1] = Patient 1, 4 weeks, CBD 15.0 mg/kg/day
[2] = Patient 1, 8 weeks, CBD 25.0 mg/kg/day
[3] = Patient 1, 12 weeks, CBD 25.0 mg/kg/day
[4] = Patient 1, 16 weeks, CBD 25.0 mg/kg/day
[5] = Patient 1, 24 weeks, CBD 23.8 mg/kg/day
[6] = Patient 1, treated for 24 weeks, relative to baseline

C=C(C)[C@@H]1CCC(C)=C[C@H]1c1c(O)cc(CCCCC)cc1O [CBD, cannabidiol]
Seizure frequency, Absence [1]: 0.0 | Seizure frequency, Tonic-clonic [1]: 1.0 | Seizure frequency, Atonic [1]: 2800.0 | Seizure frequency, Myoclonic [1]: 2800.0 | Seizure frequency, Absence [2]: 0.0 | Seizure frequency, Tonic-clonic [2]: 0.0 | Seizure frequency, Atonic [2]: 2800.0 | Seizure frequency, Myoclonic [2]: 2800.0 | Seizure frequency, Absence [3]: 0.0 | Seizure frequency, Tonic-clonic [3]: 1.0 | Seizure frequency, Atonic [3]: 2561.0 | Seizure frequency, Myoclonic [3]: 2560.0 | Seizure frequency, Absence [4]: 84.0 | Seizure frequency, Tonic-clonic [4]: 3.0 | Seizure frequency, Atonic [4]: 1260.0 | Seizure frequency, Myoclonic [4]: 840.0 | frequency of atonic and myoclonic seizures (overall statement) (Patient 1, 24 weeks treatment): effective in reducing the frequency | Seizure frequency, Absence [5]: 140.0 | Seizure frequency, Tonic-clonic [5]: 18.7 | Seizure frequency, Atonic [5]: 840.0 | Seizure frequency, Myoclonic [5]: 840.0 | reduction in atonic seizures over the treatment period [6]: 70% | reduction in myoclonic seizures over the treatment period [6]: 70% | number of seizures associated with CHRNA4 mutation (conclusion) (one patient, 24 weeks treatment): significantly reduce | tonic-clonic, atonic, myoclonic and absence seizures (summary statement) (open label, expanded-access program, patients with CHRNA4 mutation): significant reduction
